Measured values published in patent publication US6737383B1, “Herbicidal oxadiazolidines” (priority 1999, dated 2004).

Assays:
blackgrass = experiment: Test B pre/postemergence blackgrass; type: in vivo, Alopecurus myosuroides
Outline: (§1)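 Herbicidal effect was estimated by eye on a ten-point control scale after plants spent twelve to sixteen days in a greenhouse following soil or foliar treatment. Foliar sprays targeted plants at one to four leaves; all doses were formulated in a non-phytotoxic solvent with surfactant.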

morningglory = experiment: Test B pre/postemergence morningglory; type: in vivo, Ipomoea hederacea; conditions: for Morningglory plant response rating: scale of 0 to 10 where 0 is no effect and 10 is complete control
Outline: as §1

corn = experiment: Test B pre/postemergence corn; type: in vivo, Zea mays; conditions: for Corn plant response rating: scale of 0 to 10 where 0 is no effect and 10 is complete control
Outline: as §1

smallflower flatsedge = experiment: Test B flood test smallflower flatsedge; type: in vivo, Cyperus difformis
Outline: (§2)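 Read-out is a visual response score from 0 (no effect) to 10 (complete control), assigned by comparison with untreated controls. Treatment was applied at the 2-leaf stage, and plants stayed in the greenhouse for twelve to sixteen days before scoring.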

velvetleaf = experiment: Test B pre/postemergence velvetleaf; type: in vivo, Abutilon theophrasti; conditions: for Velvetleaf plant response rating: scale of 0 to 10 where 0 is no effect and 10 is complete control
Outline: as §1

wild oat = experiment: Test B pre/postemergence wild oat; type: in vivo, Avena fatua; conditions: for Wild oats plant response rating: scale of 0 to 10 where 0 is no effect and 10 is complete control
Outline: as §1

surinam grass = experiment: Test B pre/postemergence surinam grass; type: in vivo, Brachiaria decumbens
Outline: as §1

soybean = experiment: Test B pre/postemergence soybean; type: in vivo, Glycine max; conditions: for Soybean plant response rating: scale of 0 to 10 where 0 is no effect and 10 is complete control
Outline: as §1

crabgrass = experiment: Test B pre/postemergence crabgrass; type: in vivo, Digitaria sanguinalis; conditions: for Crabgrass plant response rating: scale of 0 to 10 where 0 is no effect and 10 is complete control
Outline: as §1

purple nutsedge = experiment: Test B pre/postemergence purple nutsedge; type: in vivo, Cyperus rotundus; conditions: for Nutsedge plant response rating: scale of 0 to 10 where 0 is no effect and 10 is complete control
Outline: as §1

giant foxtail = experiment: Test B pre/postemergence giant foxtail; type: in vivo, Setaria faberii; conditions: for Giant foxtail plant response rating: scale of 0 to 10 where 0 is no effect and 10 is complete control
Outline: as §1

bedstraw = experiment: Test B pre/postemergence bedstraw; type: in vivo, Galium aparine; conditions: Preemergence, scale of 0 to 10 where 0 is no effect and 10 is complete control
Outline: as §1

duck salad = experiment: Test B flood test duck salad; type: in vivo, Heteranthera limosa
Outline: as §2

rape = experiment: Test B pre/postemergence rape; type: in vivo, Brassica napus; conditions: for Rape plant response rating: scale of 0 to 10 where 0 is no effect and 10 is complete control
Outline: as §1

wheat = experiment: Test B pre/postemergence wheat; type: in vivo, Triticum aestivum; conditions: for Wheat plant response rating: scale of 0 to 10 where 0 is no effect and 10 is complete control
Outline: as §1

rice = experiment: Test B flood test rice; type: in vivo, Oryza sativa
Outline: as §2

[1] = Postemergence, Rate 125 g/ha, scale 0 to 10, 0 is no effect, 10 is complete control
[2] = Preemergence, Rate 62 g/ha, scale 0 to 10 (0 no effect, 10 complete control)
[3] = Preemergence, Rate 250 g/ha, scale of 0 to 10 where 0 is no effect and 10 is complete control
[4] = Preemergence, Rate 500 g/ha, scale of 0 to 10 where 0 is no effect and 10 is complete control
[5] = Rate 62 g/ha, Postemergence, scale of 0 to 10 where 0 is no effect and 10 is complete control
[6] = Rate 250 g/ha, Postemergence, scale of 0 to 10 where 0 is no effect and 10 is complete control
[7] = Rate 500 g/ha, Postemergence, scale 0 to 10, 0 no effect, 10 complete control
[8] = Postemergence (flood test), Rate 125 g/ha, scale 0 to 10, 0 is no effect, 10 is complete control
[9] = Rate 62 g/ha, Postemergence (flood test species), scale of 0 to 10 where 0 is no effect and 10 is complete control
[10] = Rate 62 g/ha, flood test species, Pre-emergence, visual evaluation after twelve to sixteen days
[11] = Rate 125 g/ha, Pre-emergence, flood test species, scale 0 to 10 where 0 is no effect and 10 is complete control
[12] = Rate 250 g/ha, Pre-emergence, flood-test species, scale 0 to 10, 0 is no effect, 10 is complete control
[13] = Rate 500 g/ha, listed under Postemergence (flood test species), scale 0 to 10, 0 no effect, 10 complete control
[14] = Rate 500 g/ha, Pre-emergence, flood test species, scale 0 to 10 (0 no effect, 10 complete control)

CC(C)N(C(=O)n1oc(=O)n(C2CCC2)c1=O)c1ccc(F)cc1F [Compound 351]
Plant response rating, Blackgrass (blackgrass; [1]): 2 | Plant response rating, Blackgrass (blackgrass; [2]): 0 | Blackgrass plant response rating (0 to 10 scale) (blackgrass; Preemergence, Rate 125 g/ha): 2 | Blackgrass plant response rating (blackgrass; [3]): 3 | Blackgrass plant response rating (blackgrass; [4]): 8 | Blackgrass plant response rating (blackgrass; [5]): 0 | Plant response rating, Blackgrass (blackgrass; [6]): 4 | Plant response rating, Blackgrass (blackgrass; [7]): 4 | Plant response rating, Morningglory (morningglory; [1]): 4 | Plant response rating, Morningglory (morningglory; [2]): 0 | Morningglory plant response rating (0 to 10 scale) (morningglory; Preemergence, Rate 125 g/ha): 0 | Morningglory plant response rating (morningglory; Preemergence, Rate 250 g/ha): 0 | Morningglory plant response rating (morningglory; Preemergence, Rate 500 g/ha): 0 | Morningglory plant response rating (morningglory; Rate 62 g/ha, Postemergence): 3 | Plant response rating, Morningglory (morningglory; [7]): 6 | Plant response rating, Corn (corn; [1]): 0 | Plant response rating, Corn (corn; [2]): 0 | Corn plant response rating (0 to 10 scale) (corn; Preemergence, Rate 125 g/ha): 0 | Corn plant response rating (corn; Preemergence, Rate 250 g/ha): 3 | Corn plant response rating (corn; Preemergence, Rate 500 g/ha): 6 | Corn plant response rating (corn; Rate 62 g/ha, Postemergence): 0 | Plant response rating, Corn (corn; [7]): 0 | Plant response rating, S. Flatsedge (smallflower flatsedge; [8]): 6 | S. Flatsedge plant response rating (smallflower flatsedge; [9]): 0 | Plant response rating, S. Flatsedge (0 to 10 scale, 0 is no effect, 10 is complete control) (smallflower flatsedge; [10]): 0 | S. Flatsedge plant response rating (smallflower flatsedge; [11]): 0 | S. Flatsedge plant response rating (smallflower flatsedge; [12]): 0 | Plant response rating, S. Flatsedge (smallflower flatsedge; [13]): 8 | S. Flatsedge plant response rating (smallflower flatsedge; [14]): 0 | Plant response rating, Velvetleaf (velvetleaf; [1]): 0 | Plant response rating, Velvetleaf (velvetleaf; [2]): 0 | Velvetleaf plant response rating (0 to 10 scale) (velvetleaf; Preemergence, Rate 125 g/ha): 3 | Velvetleaf plant response rating (velvetleaf; Preemergence, Rate 250 g/ha): 4 | Velvetleaf plant response rating (velvetleaf; Preemergence, Rate 500 g/ha): 5 | Velvetleaf plant response rating (velvetleaf; Rate 62 g/ha, Postemergence): 0 | Plant response rating, Velvetleaf (velvetleaf; [7]): 6 | Plant response rating, Wild oats (wild oat; [1]): 0 | Plant response rating, Wild oats (wild oat; [2]): 0 | Wild oats plant response rating (0 to 10 scale) (wild oat; Preemergence, Rate 125 g/ha): 0 | Wild oats plant response rating (wild oat; Preemergence, Rate 250 g/ha): 2 | Wild oats plant response rating (wild oat; Preemergence, Rate 500 g/ha): 4 | Wild oats plant response rating (wild oat; Rate 62 g/ha, Postemergence): 0 | Plant response rating, Wild oats (wild oat; [7]): 5 | Plant response rating, B. signalgrass (surinam grass; [1]): 0 | Plant response rating, B. signalgrass (surinam grass; [2]): 0 | B. signalgrass plant response rating (0 to 10 scale, 0 is no effect, 10 is complete control) (surinam grass; Preemergence, Rate 125 g/ha): 0 | B. signalgrass plant response rating (surinam grass; [3]): 2 | B. signalgrass plant response rating (surinam grass; [4]): 4 | B. signalgrass plant response rating (surinam grass; [5]): 0 | Plant response rating, B. signalgrass (surinam grass; [6]): 0 | Plant response rating, B. signalgrass (surinam grass; [7]): 4 | Plant response rating, Soybean (soybean; [1]): 1 | Plant response rating, Soybean (soybean; [2]): 0 | Soybean plant response rating (0 to 10 scale) (soybean; Preemergence, Rate 125 g/ha): 0 | Soybean plant response rating (soybean; Preemergence, Rate 250 g/ha): 0 | Soybean plant response rating (soybean; Preemergence, Rate 500 g/ha): 2 | Soybean plant response rating (soybean; Rate 62 g/ha, Postemergence): 1 | Plant response rating, Soybean (soybean; [7]): 2 | Plant response rating, Crabgrass (crabgrass; [1]): 1 | Plant response rating, Crabgrass (crabgrass; [2]): 7 | Crabgrass plant response rating (0 to 10 scale) (crabgrass; Preemergence, Rate 125 g/ha): 10 | Crabgrass plant response rating (crabgrass; Preemergence, Rate 250 g/ha): 10 | Crabgrass plant response rating (crabgrass; Preemergence, Rate 500 g/ha): 10 | Crabgrass plant response rating (crabgrass; Rate 62 g/ha, Postemergence): 0 | Plant response rating, Crabgrass (crabgrass; [7]): 9 | Plant response rating, Nutsedge (purple nutsedge; [1]): 0 | Plant response rating, Nutsedge (purple nutsedge; [2]): 0 | Nutsedge plant response rating (0 to 10 scale) (purple nutsedge; Preemergence, Rate 125 g/ha): 0 | Nutsedge plant response rating (purple nutsedge; Preemergence, Rate 250 g/ha): 0 | Nutsedge plant response rating (purple nutsedge; Preemergence, Rate 500 g/ha): 9 | Nutsedge plant response rating (purple nutsedge; Rate 62 g/ha, Postemergence): 0 | Plant response rating, Nutsedge (purple nutsedge; [7]): 0 | Plant response rating, Giant foxtail (giant foxtail; [1]): 7 | Plant response rating, Giant foxtail (giant foxtail; [2]): 10 | Giant foxtail plant response rating (0 to 10 scale) (giant foxtail; Preemergence, Rate 125 g/ha): 10 | Giant foxtail plant response rating (giant foxtail; Preemergence, Rate 250 g/ha): 10 | Giant foxtail plant response rating (giant foxtail; Preemergence, Rate 500 g/ha): 10 | Giant foxtail plant response rating (giant foxtail; Rate 62 g/ha, Postemergence): 0 | Plant response rating, Giant foxtail (giant foxtail; [7]): 9 | Bedstraw plant response rating (bedstraw; Rate 250 g/ha): 9 | Bedstraw plant response rating (bedstraw; Rate 500 g/ha): 10 | Plant response rating, Ducksalad (duck salad; [8]): 0 | Ducksalad plant response rating (duck salad; [9]): 0 | Plant response rating, Ducksalad (0 to 10 scale, 0 is no effect, 10 is complete control) (duck salad; [10]): 0 | Ducksalad plant response rating (duck salad; [11]): 0 | Ducksalad plant response rating (duck salad; [12]): 0 | Plant response rating, Ducksalad (duck salad; [13]): 4 | Ducksalad plant response rating (duck salad; [14]): 0 | Plant response rating, Rape (rape; [1]): 0 | Plant response rating, Rape (rape; [2]): 0 | Rape plant response rating (0 to 10 scale) (rape; Preemergence, Rate 125 g/ha): 3 | Rape plant response rating (rape; Preemergence, Rate 250 g/ha): 6 | Rape plant response rating (rape; Preemergence, Rate 500 g/ha): 9 | Rape plant response rating (rape; Rate 62 g/ha, Postemergence): 0 | Plant response rating, Rape (rape; [7]): 5 | Plant response rating, Wheat (wheat; [1]): 0 | Plant response rating, Wheat (wheat; [2]): 0 | Wheat plant response rating (0 to 10 scale) (wheat; Preemergence, Rate 125 g/ha): 0 | Wheat plant response rating (wheat; Preemergence, Rate 250 g/ha): 0 | Wheat plant response rating (wheat; Preemergence, Rate 500 g/ha): 2 | Wheat plant response rating (wheat; Rate 62 g/ha, Postemergence): 0 | Plant response rating, Wheat (wheat; [7]): 2 | Plant response rating, Rice (rice; [8]): 0 | Rice plant response rating (rice; [9]): 0 | Plant response rating, Rice (0 to 10 scale, 0 is no effect, 10 is complete control) (rice; [10]): 0 | Rice plant response rating (rice; [11]): 0 | Rice plant response rating (rice; [12]): 0 | Plant response rating, Rice (rice; [13]): 0 | Rice plant response rating (rice; [14]): 0
